Laboratory results reported in patent US9776979B2, “EBI2 modulators” (Sanford-Burnham Medical Research Institute, priority 2013, dated 2017).

The compounds below were run against EBI2 (Homo sapiens, UniProt P32249) (assay: Cell-based luminescent assay (EBI2 modulation)). Details: not given.
Protocol: Cell-Based Luminescent Assay
To assess EBI2 modulation, the compounds described herein were assayed in the following cell-based luminescent assay:
1) Plated 600 cells/well in 4 uL of assay media into columns 1-48 of a 1536-well assay plate, using a liquid dispenser.
2) Centrifuged plates at 1000 rpm for 1 minute and covered with lids.
3) Incubated overnight at 37° C., 100% relative humidity, 5% CO2.
1) Centrifuged compound plates containing compounds described herein at 500 rpm for 1 minute.
2) Added compounds into assay plate col 5-48 to final concentration 4-5 uM. Added matching amount of DMSO to positive and negative control wells in columns 1-4.
3) Dispensed 2 ul/well of assay media to columns 1-2 for the positive control wells.
4) Added 2 ul/well of 400 nM 7a,25-OHC (final assay concentration=80 nM) in assay media to columns 3-48 for the negative control and test compound wells.
5) Centrifuged plates at 1000 rpm for 1 minute and re-lid plates.
6) Incubated plates at 37° C., 100% relative humidity, 5% CO2 for 60 minutes.
7) Following 60 minute incubation, delivered 2.5 uL of Detection Reagent solution to each assay plate (Columns 1-48) using a liquid handler.
8) Centrifuged plates at 2000 rpm for 2 minutes and re-lid plates.
9) Incubated plates for 60 minutes at 25 degrees in the dark.
10) Read plates using the Viewlux, Envision or other suitable plate reader using a luminescence detection.
The experimental values were normalized by the difference between values from neutral and stimulator control wells in each plate. Then normalized data was corrected to remove systematic plate patterns due to artifacts such as dispensing tip issues etc.

Chain of EBI2 (P32249 whole entry): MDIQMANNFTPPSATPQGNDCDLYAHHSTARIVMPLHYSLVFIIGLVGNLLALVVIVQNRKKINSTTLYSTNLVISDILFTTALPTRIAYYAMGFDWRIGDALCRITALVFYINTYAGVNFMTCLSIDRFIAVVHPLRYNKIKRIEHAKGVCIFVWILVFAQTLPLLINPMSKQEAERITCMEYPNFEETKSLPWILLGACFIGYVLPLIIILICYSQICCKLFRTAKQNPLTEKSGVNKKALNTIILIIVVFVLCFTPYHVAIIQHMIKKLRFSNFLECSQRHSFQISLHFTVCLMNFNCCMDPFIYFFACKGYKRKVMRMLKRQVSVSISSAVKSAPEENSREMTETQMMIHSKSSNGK

| Compound | IC50 |
| --- | --- |
| O=C(/C=C/c1ccc(Br)cc1)N1CCC(Nc2ccccc2)CC1 [Compound C13, (2E)-3-(4-bromophenyl)-1-[4-(phenylamino)piperidyl]prop-2-en-1-one] | < 100 nM |
| O=C(/C=C/c1ccc(Br)cc1)N1CCC(Nc2cc(F)cc(F)c2)CC1 [Compound C15, (2E)-1-{4-[(3,5-difluorophenyl)amino]piperidyl}-3-(4-bromophenyl)prop-2-en-1-one] | < 100 nM |

Same assay, conditions: cell-based luminescence; 7a,25-OHC final assay concentration 80 nM; 60 minutes incubation; read-out: IC50

| Compound | IC50 |
| --- | --- |
| 4-[(3,5-dimethylphenyl)methyl]piperazinyl 5-methylindol-2-yl ketone [Compound C359] | 100 to 500 nM |
| 4-[(4-bromophenyl)sulfonyl]piperazinyl 5-chloroindol-2-yl ketone [Compound C333] | < 100 nM |
| 4-[(4-bromophenyl)sulfonyl]piperazinyl 5-methylindol-2-yl ketone [Compound C143] | < 100 nM |
| 4-[(4-chlorophenyl)carbonyl]piperazinyl 5-(trifluoromethyl)indol-2-yl ketone [Compound C64] | < 100 nM |
| 4-[(4-chlorophenyl)methyl]piperazinyl 2-(trifluoromethyl)benzimidazol-5-yl ketone [Compound C170] | 500 to 5000 nM |
| 4-bromophenyl 4-{[4-(methylethyl)phenyl]methyl}piperazinyl ketone [Compound C176] | 500 to 5000 nM |
| 4-{3-[4-(diphenylmethyl)piperazinyl]-3-oxoprop-1-ynyl}benzenecarbonitrile [Compound C326] | < 100 nM |
| 4-{[2-fluoro-4-(trifluoromethyl)phenyl]carbonyl}piperazinyl 5-(trifluoromethyl)indol-2-yl ketone [Compound C360] | < 100 nM |
| 4-{[3,5-bis(trifluoromethyl)phenyl]carbonyl}piperazinyl 5-(trifluoromethyl)indol-2-yl ketone [Compound C330] | < 100 nM |
| 4-{[3-fluoro-4-(trifluoromethyl)phenyl]methyl}piperazinyl 5-(trifluoromethyl)indol-2-yl ketone [Compound C389] | < 100 nM |
| 4-{[4-((2E)-3-phenylprop-2-enoyl)piperazinyl]methyl}benzenecarbonitrile [Compound C335] | < 100 nM |
| 4-{[4-fluoro-2-(trifluoromethyl)phenyl]methyl}piperazinyl 5-(trifluoromethyl)indol-2-yl ketone [Compound C418] | 100 to 500 nM |
| 4-{[4-fluoro-3-(trifluoromethyl)phenyl]methyl}piperazinyl 5-(trifluoromethyl)indol-2-yl ketone [Compound C415] | 100 to 500 nM |
| 4-{[(4-bromophenyl)sulfonyl]amino}piperidyl 5-chloroindol-2-yl ketone [Compound C306] | < 100 nM |
| 5-bromoindol-2-yl 4-[(4-chlorophenyl)carbonyl]piperazinyl ketone [Compound C85] | < 100 nM |
| 5-bromoindol-2-yl 4-[(4-chlorophenyl)methyl]piperazinyl ketone [Compound C303] | < 100 nM |
| 5-chloroindol-2-yl 4-[(4-(3-pyridyl)phenyl)carbonyl]piperazinyl ketone [Compound C254] | < 100 nM |
| 5-chloroindol-2-yl 4-{[4-(4-chlorophenyl)phenyl]sulfonyl}piperazinyl ketone [Compound C172] | 500 to 5000 nM |
| 5-methylindol-2-yl 4-(3-pyridylmethyl)piperazinyl ketone [Compound C458] | 100 to 500 nM |

| Compound | IC50 |
| --- | --- |
| 5-methylindol-2-yl 4-(phenylethyl)piperazinyl ketone [Compound C148] | < 100 nM |
| 5-methylindol-2-yl 4-benzylpiperazinyl ketone [Compound C376] | < 100 nM |
| 6-bromoindol-2-yl 4-[(4-chlorophenyl)carbonyl]piperazinyl ketone [Compound C239] | < 100 nM |
| 6-bromoindol-2-yl 4-[(4-chlorophenyl)methyl]piperazinyl ketone [Compound C471] | 100 to 500 nM |
| 6-fluoroindol-2-yl 4-[(4-fluorophenyl)carbonyl]piperazinyl ketone [Compound C425] | 100 to 500 nM |
| O=C(/C=C/c1ccc(Br)cc1)N1CCN(C(=O)c2ccc(Cl)cc2)CC1 [Compound C1, (E)-3-(4-bromophenyl)-1-(4-(4-chlorobenzoyl)piperazin-1-yl) prop-2-en-1-one] | < 100 nM |
| O=C(/C=C/c1ccc(Br)cc1)N1CCN(C(=O)c2ccc(P(=O)(O)O)cc2)CC1 [Compound C3, (E)-(4-(4-(3-(4-bromophenyl)acryloyl)piperazine-1-carbonyl)phenyl)phosphonic acid] | < 100 nM |
| Cc1ccc(C(=O)N2CCN(C(=O)/C=C/c3ccc(Br)cc3)CC2)cc1 [Compound C4, (2E)-3-(4-bromophenyl)-1-{4-[(4-methylphenyl)carbonyl]piperazinyl} prop-2-en-1-one] | < 100 nM |
| O=C(/C=C/c1ccc(Cl)c(Cl)c1)N1CCN(C(c2ccccc2)c2ccccc2)CC1 [Compound C5, (2E)-3-(3,4-dichlorophenyl)-1-[4-(diphenylmethyl)piperazinyl] prop-2-en-1-one] | < 100 nM |
| O=C(/C=C/c1ccc(Cl)c(Cl)c1)N1CCN(C(=O)c2ccc(C(F)(F)F)cc2)CC1 [Compound C6, (2E)-3-(3,4-dichlorophenyl)-1-(4-{[4-(trifluoromethyl)phenyl]carbonyl}piperazinyl) prop-2-en-1-one] | < 100 nM |
| COc1ccc(C(=O)N2CCN(C(=O)C#Cc3ccc(Cl)cc3)CC2)cc1 [Compound C7, 3-(4-chlorophenyl)-1-{4-[(4-methoxyphenyl)carbonyl]piperazinyl}prop-2-yn-1-one] | < 100 nM |
| COc1ccc(C(=O)N2CCN(C(=O)C#Cc3ccc(C)cc3)CC2)cc1 [Compound C8, 1-{4-[(4-methoxyphenyl)carbonyl]piperazinyl}-3-(4-methylphenyl)prop-2-yn-1-one] | < 100 nM |
| COc1ccc(C(=O)N2CCN(C(=O)C#Cc3ccc(C(F)(F)F)cc3)CC2)cc1 [Compound C9, 1-{4-[(4-methoxyphenyl)carbonyl]piperazinyl}-3-[4-(trifluoromethyl)phenyl]prop-2-yn-1-one] | < 100 nM |
| COc1ccc(C(=O)N2CCN(C(=O)C#Cc3ccc(Br)cc3)CC2)cc1 [Compound C10, 3-(4-bromophenyl)-1-{4-[(4-methoxyphenyl)carbonyl]piperazinyl}prop-2-yn-1-one] | < 100 nM |
| COc1ccc(C(=O)N2CCN(C(=O)C=Cc3ccc(Cl)c(Cl)c3)CC2)cc1 [Compound C11, 3-(3,4-dichlorophenyl)-1-{4-[(4-methoxyphenyl)carbonyl]piperazinyl}prop-2-en-1-one] | < 100 nM |
| COc1ccc(C(=O)N2CCN(C(=O)C#Cc3ccc(Cl)c(Cl)c3)CC2)cc1 [Compound C12, 3-(3,4-dichlorophenyl)-1-{4-[(4-methoxyphenyl)carbonyl]piperazinyl}prop-2-yn-1-one] | < 100 nM |
| O=C(/C=C/c1ccc(Br)cc1)N1CCN(C(=O)c2ccccc2)CC1 [Compound C14, (2E)-3-(4-bromophenyl)-1-[4-(phenylcarbonyl)piperazinyl]prop-2-en-1-one] | < 100 nM |
| O=C(C#Cc1ccc(Cl)cc1)N1CCN(C(=O)c2ccc(Cl)cc2)CC1 [Compound C16, 3-(4-chlorophenyl)-1-{4-[(4-chlorophenyl)carbonyl]piperazinyl}prop-2-yn-1-one] | < 100 nM |
